PMC8799717, “Pharmacological targeting PIKfyve and tubulin as an effective treatment strategy for double-hit lymphoma” (Cell Death Discovery, 2022)

Assays:
KIT = KIT (Homo sapiens, UniProt P10721); assay: KINOMEscan competition binding, single dose […]; conditions: read-out: % of control at 1 μM
EPHA8 = EPHA8 (Homo sapiens, UniProt P29322); assay: KINOMEscan competition binding, single dose […]; conditions: read-out: % of control at 1 μM
DDR2 = DDR2 (Homo sapiens, UniProt Q16832); assay: KINOMEscan competition binding, single dose […]; conditions: read-out: % of control at 1 μM
Sequence of DDR2 (Q16832 22-855): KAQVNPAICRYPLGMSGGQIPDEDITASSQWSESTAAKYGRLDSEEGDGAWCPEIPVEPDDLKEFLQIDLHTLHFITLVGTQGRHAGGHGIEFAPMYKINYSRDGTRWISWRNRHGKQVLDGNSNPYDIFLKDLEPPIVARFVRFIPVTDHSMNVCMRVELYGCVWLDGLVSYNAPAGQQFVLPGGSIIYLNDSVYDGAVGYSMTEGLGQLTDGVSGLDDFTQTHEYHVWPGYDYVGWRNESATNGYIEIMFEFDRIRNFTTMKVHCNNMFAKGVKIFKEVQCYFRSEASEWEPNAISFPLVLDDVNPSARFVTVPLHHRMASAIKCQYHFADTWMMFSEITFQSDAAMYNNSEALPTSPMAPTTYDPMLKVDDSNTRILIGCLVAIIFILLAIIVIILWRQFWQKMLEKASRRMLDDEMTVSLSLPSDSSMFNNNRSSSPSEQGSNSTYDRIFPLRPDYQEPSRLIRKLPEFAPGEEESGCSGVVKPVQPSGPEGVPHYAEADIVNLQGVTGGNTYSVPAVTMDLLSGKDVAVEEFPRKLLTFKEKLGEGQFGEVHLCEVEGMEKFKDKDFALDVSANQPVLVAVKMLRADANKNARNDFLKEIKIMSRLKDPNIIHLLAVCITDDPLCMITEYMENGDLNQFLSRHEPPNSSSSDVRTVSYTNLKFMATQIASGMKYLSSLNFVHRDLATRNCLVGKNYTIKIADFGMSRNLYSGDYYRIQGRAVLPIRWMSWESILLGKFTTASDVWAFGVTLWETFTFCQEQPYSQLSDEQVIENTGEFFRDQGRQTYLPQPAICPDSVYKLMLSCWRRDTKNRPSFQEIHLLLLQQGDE

DDR1 = DDR1 (Homo sapiens, UniProt Q08345); assay: KINOMEscan competition binding, single dose […]; conditions: read-out: % of control at 1 μM
LCK = LCK (Homo sapiens, UniProt P06239); assay: KINOMEscan competition binding, single dose […]; conditions: read-out: % of control at 1 μM
Sequence of LCK (P06239 2-509): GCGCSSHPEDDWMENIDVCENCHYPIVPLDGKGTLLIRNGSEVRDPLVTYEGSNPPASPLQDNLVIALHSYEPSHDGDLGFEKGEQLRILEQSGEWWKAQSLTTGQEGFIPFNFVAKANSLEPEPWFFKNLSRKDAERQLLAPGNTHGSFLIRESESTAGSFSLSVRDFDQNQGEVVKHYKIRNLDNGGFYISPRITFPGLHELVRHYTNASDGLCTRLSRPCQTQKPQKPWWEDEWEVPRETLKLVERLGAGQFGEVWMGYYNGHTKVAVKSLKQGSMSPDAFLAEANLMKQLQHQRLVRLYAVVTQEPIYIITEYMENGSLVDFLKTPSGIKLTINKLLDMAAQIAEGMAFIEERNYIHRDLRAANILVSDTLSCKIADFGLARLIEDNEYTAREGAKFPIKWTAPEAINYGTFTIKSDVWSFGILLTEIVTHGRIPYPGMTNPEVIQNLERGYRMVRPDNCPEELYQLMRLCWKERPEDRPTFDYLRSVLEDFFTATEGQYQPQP

DAPK2 = DAPK2 (Homo sapiens, UniProt Q9UIK4); assay: biochemical; design: KINOMEscan active-site-directed competition binding panel, 468 kinases, percent of DMSO control at 1 uM; conditions: KINOMEscan binding, percent of DMSO control; read-out: Ctrl%
Sequence of DAPK2 (Q9UIK4 whole entry): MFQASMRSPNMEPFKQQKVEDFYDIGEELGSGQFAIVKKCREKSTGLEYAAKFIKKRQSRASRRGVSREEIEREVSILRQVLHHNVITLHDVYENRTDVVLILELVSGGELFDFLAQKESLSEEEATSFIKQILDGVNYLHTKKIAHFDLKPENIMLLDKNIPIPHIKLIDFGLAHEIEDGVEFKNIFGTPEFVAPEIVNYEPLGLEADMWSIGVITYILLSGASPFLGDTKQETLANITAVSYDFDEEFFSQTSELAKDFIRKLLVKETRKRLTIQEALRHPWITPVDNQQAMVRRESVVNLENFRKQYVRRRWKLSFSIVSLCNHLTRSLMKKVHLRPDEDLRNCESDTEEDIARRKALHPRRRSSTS

EIF2AK1 = EIF2AK1 (Homo sapiens, UniProt Q9BQI3); assay: biochemical; design: KINOMEscan active-site-directed competition binding panel, 468 kinases, percent of DMSO control at 1 uM; conditions: KINOMEscan binding, percent of DMSO control; read-out: Ctrl%
Sequence of EIF2AK1 (Q9BQI3 whole entry): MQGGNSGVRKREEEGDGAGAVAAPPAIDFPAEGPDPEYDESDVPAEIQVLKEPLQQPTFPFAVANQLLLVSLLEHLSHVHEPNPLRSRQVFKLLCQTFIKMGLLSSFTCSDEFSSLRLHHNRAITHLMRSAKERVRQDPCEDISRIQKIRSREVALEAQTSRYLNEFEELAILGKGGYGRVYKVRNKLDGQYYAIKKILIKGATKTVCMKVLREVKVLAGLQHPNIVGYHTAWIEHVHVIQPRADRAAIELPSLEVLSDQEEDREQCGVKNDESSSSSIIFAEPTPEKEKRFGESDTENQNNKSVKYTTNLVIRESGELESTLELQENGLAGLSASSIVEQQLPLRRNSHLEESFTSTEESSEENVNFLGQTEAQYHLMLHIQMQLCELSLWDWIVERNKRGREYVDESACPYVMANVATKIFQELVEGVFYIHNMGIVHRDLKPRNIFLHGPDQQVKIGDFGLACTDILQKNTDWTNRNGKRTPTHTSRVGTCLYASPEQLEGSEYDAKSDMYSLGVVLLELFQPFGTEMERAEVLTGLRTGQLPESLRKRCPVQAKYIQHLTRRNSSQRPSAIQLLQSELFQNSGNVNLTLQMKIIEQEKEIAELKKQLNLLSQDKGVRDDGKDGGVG

MAP3K1 = MAP3K1 (Homo sapiens, UniProt Q13233); assay: biochemical; design: KINOMEscan active-site-directed competition binding panel, 468 kinases, percent of DMSO control at 1 uM; conditions: KINOMEscan binding, percent of DMSO control; read-out: Ctrl%
TLK1 = TLK1 (Homo sapiens, UniProt Q9UKI8); assay: biochemical; design: KINOMEscan active-site-directed competition binding panel, 468 kinases, percent of DMSO control at 1 uM; conditions: KINOMEscan binding, percent of DMSO control; read-out: Ctrl%
DYRK1B = DYRK1B (Homo sapiens, UniProt Q9Y463); assay: biochemical; design: KINOMEscan active-site-directed competition binding panel, 468 kinases, percent of DMSO control at 1 uM; conditions: KINOMEscan binding, percent of DMSO control; read-out: Ctrl%
Sequence of DYRK1B (Q9Y463 whole entry): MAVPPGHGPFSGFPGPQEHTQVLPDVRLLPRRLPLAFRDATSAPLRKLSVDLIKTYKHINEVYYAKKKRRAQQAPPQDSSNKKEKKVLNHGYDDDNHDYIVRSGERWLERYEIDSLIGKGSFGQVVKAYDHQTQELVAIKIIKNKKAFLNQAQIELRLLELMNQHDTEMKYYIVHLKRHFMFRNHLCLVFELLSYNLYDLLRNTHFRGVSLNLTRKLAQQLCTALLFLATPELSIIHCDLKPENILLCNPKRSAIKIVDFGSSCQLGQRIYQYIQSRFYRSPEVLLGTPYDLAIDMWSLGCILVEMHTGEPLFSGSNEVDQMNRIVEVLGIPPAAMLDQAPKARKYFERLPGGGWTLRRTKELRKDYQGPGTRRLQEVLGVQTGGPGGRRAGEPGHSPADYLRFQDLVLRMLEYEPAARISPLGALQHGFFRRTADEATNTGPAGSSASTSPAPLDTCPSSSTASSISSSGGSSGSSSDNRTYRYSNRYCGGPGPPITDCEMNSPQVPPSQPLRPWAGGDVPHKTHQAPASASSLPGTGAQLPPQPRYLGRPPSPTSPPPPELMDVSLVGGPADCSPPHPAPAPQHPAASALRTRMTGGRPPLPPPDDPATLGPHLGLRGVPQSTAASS

LTK = LTK (Homo sapiens, UniProt P29376); assay: biochemical; design: KINOMEscan active-site-directed competition binding panel, 468 kinases, percent of DMSO control at 1 uM; conditions: KINOMEscan binding, percent of DMSO control; read-out: Ctrl%
STK33 = STK33 (Homo sapiens, UniProt Q9BYT3); assay: biochemical; design: KINOMEscan active-site-directed competition binding panel, 468 kinases, percent of DMSO control at 1 uM; conditions: KINOMEscan binding, percent of DMSO control; read-out: Ctrl%
Sequence of STK33 (Q9BYT3 whole entry): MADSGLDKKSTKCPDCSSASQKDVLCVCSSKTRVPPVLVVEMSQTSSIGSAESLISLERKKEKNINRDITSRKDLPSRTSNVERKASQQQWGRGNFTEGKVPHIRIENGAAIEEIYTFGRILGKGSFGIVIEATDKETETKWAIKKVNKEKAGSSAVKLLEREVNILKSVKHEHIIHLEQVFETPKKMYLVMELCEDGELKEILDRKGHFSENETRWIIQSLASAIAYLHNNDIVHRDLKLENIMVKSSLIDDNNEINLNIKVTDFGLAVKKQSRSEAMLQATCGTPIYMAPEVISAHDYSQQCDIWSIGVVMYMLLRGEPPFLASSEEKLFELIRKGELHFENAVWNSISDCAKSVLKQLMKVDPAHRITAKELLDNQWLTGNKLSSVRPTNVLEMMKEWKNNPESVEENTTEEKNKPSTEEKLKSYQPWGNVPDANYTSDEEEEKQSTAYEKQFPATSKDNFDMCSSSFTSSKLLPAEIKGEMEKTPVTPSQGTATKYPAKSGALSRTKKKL

Sequence of EPHA8 (P29322 28-1005): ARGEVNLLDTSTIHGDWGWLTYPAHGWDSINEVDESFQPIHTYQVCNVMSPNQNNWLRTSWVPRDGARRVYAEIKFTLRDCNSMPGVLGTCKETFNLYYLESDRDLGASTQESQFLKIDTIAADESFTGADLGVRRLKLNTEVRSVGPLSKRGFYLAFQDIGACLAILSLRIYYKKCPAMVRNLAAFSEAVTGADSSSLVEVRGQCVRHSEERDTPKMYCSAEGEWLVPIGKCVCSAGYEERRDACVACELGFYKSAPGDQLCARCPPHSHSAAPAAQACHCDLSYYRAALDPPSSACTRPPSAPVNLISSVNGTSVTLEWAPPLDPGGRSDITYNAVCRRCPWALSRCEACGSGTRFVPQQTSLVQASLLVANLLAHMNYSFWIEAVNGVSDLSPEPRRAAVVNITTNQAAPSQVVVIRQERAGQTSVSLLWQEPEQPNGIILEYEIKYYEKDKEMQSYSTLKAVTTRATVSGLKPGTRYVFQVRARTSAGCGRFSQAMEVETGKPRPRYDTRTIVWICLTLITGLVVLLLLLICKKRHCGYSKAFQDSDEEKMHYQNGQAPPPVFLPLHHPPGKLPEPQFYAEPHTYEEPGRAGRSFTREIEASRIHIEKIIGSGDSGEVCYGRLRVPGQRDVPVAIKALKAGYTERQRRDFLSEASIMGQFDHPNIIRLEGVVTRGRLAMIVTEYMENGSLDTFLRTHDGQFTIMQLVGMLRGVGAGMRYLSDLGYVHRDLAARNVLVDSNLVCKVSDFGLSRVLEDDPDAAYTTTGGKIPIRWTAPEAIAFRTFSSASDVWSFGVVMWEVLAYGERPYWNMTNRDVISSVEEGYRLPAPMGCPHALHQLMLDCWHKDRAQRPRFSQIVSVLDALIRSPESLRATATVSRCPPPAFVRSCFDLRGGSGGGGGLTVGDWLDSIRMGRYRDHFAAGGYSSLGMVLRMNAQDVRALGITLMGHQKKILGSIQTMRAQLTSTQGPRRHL

Cc1ccc(NC(=O)c2cccc(C(F)(F)F)c2)cc1Nc1cc(-c2cccnc2)nc2[nH]ccc12 [HZX-02-059]
remaining binding at 1 µM (KIT): 1.2% | remaining binding at 1 µM (EPHA8): 0.5% | remaining binding at 1 µM (DDR2): 0% | remaining binding at 1 µM (DDR1): 0.75% | remaining binding at 1 µM (LCK): 0.9% | remaining binding at 1 µM (DAPK2): 100% | remaining binding at 1 µM (EIF2AK1): 79% | remaining binding at 1 µM (MAP3K1): 56% | remaining binding at 1 µM (TLK1): 95% | remaining binding at 1 µM (DYRK1B): 97% | remaining binding at 1 µM (LTK): 79% | remaining binding at 1 µM (STK33): 94%
